Data as given in paper PMC7822874, “Chemoprotective antimalarials identified through quantitative high-throughput screening of Plasmodium blood and liver stage parasites” (Scientific Reports, 2021).

Assays:
HepG2 = settings: human, hepg2 cells, 48 h
in vitro = settings: human, hepg2 cells

| SMILES | Log AC50 (M) (HepG2) | CC50 at 48 h (in vitro) [µM] |
| --- | --- | --- |
| O=C(Nc1ccc(Oc2cccc(C(F)(F)F)c2)nc1)c1cccs1 [MLS000860613-01] | -4.7643 | 17.2 |
| COc1cccc(-c2noc(CCCc3nc(-c4cccnn4)no3)n2)c1 [NCGC00435845-01] | -4.5143 | 30.6 |
| O=C(c1ccco1)N1CCCN(c2cc(-c3ccc(Br)cc3)n[nH]2)CC1 [NCGC00436196-01] | -4.3643 | 43.2 |
| O=C(c1n[nH]c2c1CCCC2)N1CCC(n2cc(-c3nc(-c4ccccc4)no3)nn2)CC1 [NCGC00454851-01] | -4.5143 | 30.6 |
| Brc1ccc2[nH]c3c(N4CCc5ccccc5C4)ncnc3c2c1 [MLS000556376-01] | -4.3643 | 43.2 |
| CC(C)c1nc(-c2ccc(OC3CCN(C(=O)c4cc(F)ccc4F)C3)cc2)no1 (stereo not shown) [NCGC00441011-01] | -4.4643 | 34.3 |
| CC(=O)c1cn(CCOc2ccc(F)cc2)c2ccccc12 [MLS001205469-01] | -4.3643 | 43.2 |
| CCOC(=O)c1ccc(N2C(=O)c3[nH]nc(-c4ccc(OC)cc4)c3C2c2cccc(O)c2)cc1 (stereo not shown) [NCGC00108527-01] | -4.3643 | 43.2 |
| COc1ccc(C(=O)N2CCC(n3cc(-c4nc(-c5ccccc5)no4)nn3)C2)cc1 (stereo not shown) [NCGC00455125-01] | -4.3643 | 43.2 |
| Cc1ccc(NC(=O)C2CCN(c3cc(C(F)(F)F)ncn3)CC2)cc1 [NCGC00455557-01] | -4.4643 | 34.3 |
| COc1cc(NC(=O)Cn2c(N(C)Cc3ccccc3)nc(C)cc2=O)cc(OC)c1 [NCGC00432301-01] | -4.3643 | 43.2 |
| Cc1nc(-c2ccc(Cl)cc2)sc1CCNC(=O)c1ccco1 [NCGC00131874-01] | -5.1643 | 6.85 |
| O=C1CCN(Cc2ccc(C(F)(F)F)cc2)CCCC(c2nc(-c3cccnc3)no2)CCN1 (stereo not shown) [NCGC00465921-01] | -4.5643 | 27.3 |
| O=C(C[C@@H]1CCNC[C@@H]1Cc1cc(CC2CCCCC2)on1)NCc1ccccc1 [NCGC00400728-01] | -4.3028 | 49.8 |
| COc1ccc2cc1Nc1ccc(cc1)C[C@H](NC(=O)CCc1ccccn1)C(=O)N(C)[C@@H](C(=O)NCc1ccccc1)C2 [NCGC00410291-01] | -4.6143 | 24.3 |
| CC(=O)N1CCN(c2cc(-c3noc([C@@H]4CCCN4Cc4ccc(C(F)(F)F)cc4)n3)ccn2)CC1 [NCGC00394931-01] | -4.5143 | 30.6 |
| O=c1c2ccccc2nc2n1CCN2Cc1ccc(Cl)cc1 [MLS000107729-01] | -4.3643 | 43.2 |
| CC(C(=O)N1CCCN(c2cc(-c3ccc(Cl)cc3)n[nH]2)CC1)c1ccccc1 (stereo not shown) [NCGC00436178-01] | -4.3643 | 43.2 |
| CCN(CC)CCCNC(=O)c1ccc2c(c1)sc1nc(-c3ccc(C)cc3)cn12 [NCGC00121667-01] | -4.3643 | 43.2 |
| O=C1CCN(Cc2ccc(F)cc2F)CCCC(c2nc(-c3cnccn3)no2)CCN1 (stereo not shown) [NCGC00465975-01] | -4.9143 | 12.2 |
| CCCCCCc1cc2cc(-c3nnc(-c4ccc(C)cc4)o3)c(=O)oc2cc1O [NCGC00098410-01] | -4.4643 | 34.3 |
| OC[C@H]1CCN(Cc2ccc(-c3cccc(Cl)c3Cl)o2)C[C@@H]1O [NCGC00438915-01] | -4.5143 | 30.6 |
| CCC(C(=O)N1CCN(c2cc(-c3cccs3)n[nH]2)CC1)c1ccccc1 (stereo not shown) [NCGC00436744-01] | -4.3643 | 43.2 |
| Cc1nn(C)c(C)c1CCC(=O)N1CCC(Cc2noc(-c3ccc(F)cc3)n2)C1 (stereo not shown) [NCGC00443260-01] | -4.5143 | 30.6 |
| O=C(CC1C(=O)NCCN1Cc1cccc(Oc2ccccc2)c1)NCc1ccco1 (stereo not shown) [NCGC00439848-01] | -8.3643 | 0.00432 |
| CCCCOc1ccc(-c2nc(C3CC(=O)N(C4CCCCC4)C3)no2)cc1 (stereo not shown) [NCGC00448051-01] | -4.4643 | 34.3 |
| CCN1C(=O)C2(CCN([S+](=O)([O-])c3cc(F)ccc3C)CC2)c2ccccc21 [NCGC00435872-01] | -4.4143 | 38.5 |
| Cc1ccc(-c2nn(-c3ccccc3)cc2CSC(=N)N)cc1 [MLS000572993-01] | -4.3643 | 43.2 |
| Fc1ccc(CN2CC[C@H](c3nc4ccc(C(F)(F)F)cc4[nH]3)C2)cc1F [NCGC00396703-01] | -4.3028 | 49.8 |
